Laboratory results reported in US7273848B2, “Apolipoprotein A-I agonists and their use to treat dyslipidemic disorders” (priority 1997, dated 2007).
Like-named read-outs stand apart in the source and are kept apart here. Non-standard residues stand in square brackets, D forms with d. Residues, ends and D or L forms follow the SMILES beside them. 1Nal = N[C@@H](Cc1cccc2ccccc12)C(=O)O; Aib = CC(C)(N)C(=O)O

Experiments:
[1] = Circular dichroism helicity determination; type: physicochemical; settings: for He (%) TFE: 5 μM peptide, 90% vol TFE; for He (%) TFE / He (%) SUVs: 37° C.; for He (%) free: unbound peptide 5 μM in 5 mM phosphate buffer, pH 7.4, 37° C.; for He (%) SUVs: peptide-SUV complexes (20:1 EPC:Chol., Ri=30 and Ri=50)
Method: Far UV circular dichroism spectra were recorded between 190 and 260 nm (in 0.5 nm or 0.2 nm increments) with a AVIV62DS spectrometer (AVIV Associates, Lakewood, N.J., USA) equipped with a thermoelectric cell holder and sample changer. The instrument was calibrated with (+)-10-[…]. Between one and three scans were collected for each sample, using 10 cm, 5 cm, 1 cm and 0.1 cm path length quartz Suprasil cells, respectively, for peptide concentrations of 10^−7 M to 10^−4 M. The bandwidth was fixed at 1.5 nm and the scan speed to 1s per wavelength step. The reported data are the mean of at least 2 or 3 independent measurements.
After background substraction, spectra were converted to molar ellipticity (θ) per residue in deg. […] dmol^−1. The peptide concentration was determined by amino acid analysis and also by absorption spectrometry on a Perkin Elmer Lambda 17 UV/Visible spectrophotometer when the peptide contained a chromophore (tryptophane, dansyl, naphtylalanine).
CD spectra were obtained with free, unbound peptide (5 μM in 5 mM phosphate buffer, pH 7.4); with peptide-SUV complexes (20:1 EPC:Chol., Ri=30 and Ri=50); with peptide-micelle complexes (1-myristoyl-2-hydroxy-sn-glycero-3-phosphatidyl choline, Ri=100); and with free, unbound peptide in the presence of 2,2,2-trifluoroethanol (TFE) (5 μM peptide, 90% vol TFE).
The SUVs were obtained by dispersing the lipids (10 mM, 20:1 EPC:Chol., Avanti Polar Lipids, AL) in phosphate buffer (5 mM, pH 7.4) with bubbling N2 for 5 min., followed by sonication (1.5 hr.) in a bath sonicator. The homogeneity of the preparation was checked by FPLC.
The micelles were obtained by dispersing the lipid (6 mM 1-myristoyl-2-hydroxy-sn-glycero-3-phosphatidyl choline, Avanti Polar Lipids, AL) in phosphate buffer (5 mM, pH 7.4) with bubbling N2 for 5 min., followed by vortexing.
To obtain the peptide-SUV complexes, SUVs were added to the peptide (5 μM in 5 mM phosphate buffer, pH 7.4) at a phospholipid-peptide molar ratio (Ri) of 30 or 50.
To obtain the peptide-micelle complexes, micelles were added to the peptide (5 μM in 5 mM phosphate buffer, pH 7.4) at a Ri of 100.
All spectra were recorded at 37° C.
The degree of helicity of the peptides in the various conditions was determined from the mean residue ellipticity at 222 nm (Chen et al., 1974, Biochemistry 13:3350-3359) or by comparing the CD spectra obtained to reference spectra available on databases (16 helical reference spectra from Provencher & Glockner, 1981, Biochemistry 20:33-37; denatured protein reference spectra from Venyaminov et al., 1993, Anal. Biochem. 214:17-24) using the CONTIN curve-fitting algorithm version 2DP, CD-1 pack (August 1982) (Provencher, 1982, Comput. Phys. Commun. 27:213-227, 229-242). Acceptable fit was determined using the statistical analysis methodology provided by the CONTIN algorithm. The error of all methods was ±5% helicity.

[2] = target: T1, LCAT (purified from human plasma) (Homo sapiens, UniProt P04180); test: LCAT activation assay; type: biochemical
T1 construct: from tissue; host or cells: human plasma
T1 sequence (P04180 25-440): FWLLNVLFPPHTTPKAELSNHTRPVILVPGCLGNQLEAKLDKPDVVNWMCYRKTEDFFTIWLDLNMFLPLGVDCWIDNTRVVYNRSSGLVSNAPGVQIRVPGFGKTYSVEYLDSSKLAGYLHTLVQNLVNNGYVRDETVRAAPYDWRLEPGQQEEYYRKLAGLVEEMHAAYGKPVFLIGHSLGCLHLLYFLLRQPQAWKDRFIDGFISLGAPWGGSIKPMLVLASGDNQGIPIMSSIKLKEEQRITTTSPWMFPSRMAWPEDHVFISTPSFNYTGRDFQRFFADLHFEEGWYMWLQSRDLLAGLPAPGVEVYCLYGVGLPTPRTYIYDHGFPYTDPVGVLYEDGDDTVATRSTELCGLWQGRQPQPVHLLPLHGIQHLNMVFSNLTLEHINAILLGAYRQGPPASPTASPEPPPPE
Procedure, shortened: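 Substrate SUVs of EPC or POPC with 14C-cholesterol (20:1 molar ratio), in 10 mM Tris, 0.14 M NaCl, 1 mM EDTA, pH 7.4, were preincubated with peptide or equal mass of plasma ApoA-I. Reaction started with human plasma LCAT; activation was measured as cholesterol-to-ester conversion relative to ApoA-I (100%).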

[3] = percent helicity, peptide-micelle complexes, Ri=100, 37° C.
[4] = LCAT activation as compared with native human ApoA-I (= 100%), equivalent masses

| He (%) TFE ([1]; percent helicity) [%] | He (%) free ([1]; percent helicity) [%] | He (%) SUVs ([1]; percent helicity) [%] | He (%) mics [1, 3] [%] | ACTIVITY (%) LCAT [2, 4] [%] | SMILES | He (%) mics [1] [%] | ACTIVITY (%) LCAT [2] [%] |
| --- | --- | --- | --- | --- | --- | --- | --- |
| 81 | 72 | 82 | 92 | 44 | CC(C)C[C@H](NC(=O)[C@H](C)NC(=O)[C@H](CCC(=O)O)NC(=O)[C@H](Cc1cccc2ccccc12)NC(=O)[C@H](CC(C)C)NC(=O)[C@H](CCC(=O)O)NC(=O)[C@H](CC(N)=O)NC(=O)[C@H](CC(C)C)NC(=O)[C@H](CC(C)C)NC(=O)[C@H](CCC(=O)O)NC(=O)[C@H](CCCNC(=N)N)NC(=O)[C@H](Cc1ccccc1)NC(=O)[C@H](CC(C)C)NC(=O)[C@H](CC(=O)O)NC(=O)[C@H](CC(C)C)NC(=O)[C@@H](NC(=O)[C@@H]1CCCN1)C(C)C)C(=O)N[C@@H](CCCCN)C(=O)N[C@@H](CCC(N)=O)C(=O)N[C@@H](CCCCN)C(=O)N[C@@H](CC(C)C)C(=O)N[C@@H](CCCCN)C(=O)O [compound 27, PVLDLFRELLNELZEALKQKLK] (H-PVLDLFRELLNEL[1Nal]EALKQKLK-OH) | – | – |
| 90 | 49 | – | 98 | 34 | CC(C)C[C@H](NC(=O)[C@H](C)NC(=O)[C@H](CCC(=O)O)NC(=O)[C@H](CC(C)C)NC(=O)C(C)(C)NC(=O)[C@H](CCC(=O)O)NC(=O)[C@H](CC(N)=O)NC(=O)[C@H](CC(C)C)NC(=O)[C@H](CC(C)C)NC(=O)[C@H](CCC(=O)O)NC(=O)[C@H](CC(C)C)NC(=O)[C@H](Cc1ccccc1)NC(=O)[C@H](CC(C)C)NC(=O)[C@H](CC(=O)O)NC(=O)[C@H](CC(C)C)NC(=O)[C@@H](NC(=O)[C@@H]1CCCN1)C(C)C)C(=O)N[C@@H](CCCCN)C(=O)N[C@@H](CCC(N)=O)C(=O)N[C@@H](CCCCN)C(=O)N[C@@H](CC(C)C)C(=O)N[C@@H](CCCCN)C(=O)O [compound 31, PVLDLFLELLNEXLEALKQKLK] (H-PVLDLFLELLNE[Aib]LEALKQKLK-OH) | – | – |
| 62 | 58 | 68 | 67 | 32 | CC(C)C[C@H](NC(=O)[C@H](C)NC(=O)[C@H](CCC(=O)O)NC(=O)[C@H](CC(C)C)NC(=O)[C@H](CC(C)C)NC(=O)[C@H](CCC(=O)O)NC(=O)[C@H](CC(N)=O)NC(=O)[C@H](CC(C)C)NC(=O)[C@H](CC(C)C)NC(=O)[C@H](CCC(=O)O)NC(=O)[C@H](CCCNC(=N)N)NC(=O)[C@H](Cc1ccccc1)NC(=O)[C@H](Cc1cccc2ccccc12)NC(=O)[C@H](CC(=O)O)NC(=O)[C@H](CC(C)C)NC(=O)[C@@H](NC(=O)[C@@H]1CCCN1)C(C)C)C(=O)N[C@@H](CCCCN)C(=O)N[C@@H](CCC(N)=O)C(=O)N[C@@H](CCCCN)C(=O)N[C@@H](CC(C)C)C(=O)N[C@@H](CCCCN)C(=O)O [compound 34, PVLDZFRELLNELLEALKQKLK] (H-PVLD[1Nal]FRELLNELLEALKQKLK-OH) | – | – |

| SMILES | He (%) TFE ([1]; percent helicity) [%] | He (%) free ([1]; percent helicity) [%] | He (%) SUVs ([1]; percent helicity) [%] | He (%) mics [1, 3] [%] | ACTIVITY (%) LCAT [2, 4] [%] | He (%) mics [1] [%] | ACTIVITY (%) LCAT [2] [%] |
| --- | --- | --- | --- | --- | --- | --- | --- |
| CC(C)C[C@H](NC(=O)[C@H](C)NC(=O)[C@H](CCC(=O)O)NC(=O)[C@H](CC(C)C)NC(=O)[C@H](CC(C)C)NC(=O)[C@H](CCC(=O)O)NC(=O)[C@H](CC(N)=O)NC(=O)[C@H](CC(C)C)NC(=O)[C@H](CC(C)C)NC(=O)[C@H](CCC(=O)O)NC(=O)[C@H](CCCNC(=N)N)NC(=O)[C@H](Cc1ccccc1)NC(=O)[C@H](CC(C)C)NC(=O)[C@H](CC(=O)O)NC(=O)[C@H](CC(C)C)NC(=O)[C@@H](NC(=O)[C@@H]1CCCN1S(=O)(=O)c1cccc2c(N(C)C)cccc12)C(C)C)C(=O)N[C@@H](CCCCN)C(=O)N[C@@H](CCC(N)=O)C(=O)N[C@@H](CCCCN)C(=O)N[C@@H](CC(C)C)C(=O)N[C@@H](CCCCN)C(=O)O [compound 30] | 90 | 85 | 98 | – | – | 90 | 38 |
